Consider twelve compounds from US7067491B2, “Heterocyclic compounds having elastase-inhibiting activity and intermediates thereof” (Dainippon Pharmaceutical Co., Ltd., priority 2002, dated 2006).

In data set [1] the target is T1, human neutrophil elastase (Homo sapiens, UniProt P08246).
T1 construct: purchased Elastine Product Co., Inc
T1 sequence (P08246 30-267): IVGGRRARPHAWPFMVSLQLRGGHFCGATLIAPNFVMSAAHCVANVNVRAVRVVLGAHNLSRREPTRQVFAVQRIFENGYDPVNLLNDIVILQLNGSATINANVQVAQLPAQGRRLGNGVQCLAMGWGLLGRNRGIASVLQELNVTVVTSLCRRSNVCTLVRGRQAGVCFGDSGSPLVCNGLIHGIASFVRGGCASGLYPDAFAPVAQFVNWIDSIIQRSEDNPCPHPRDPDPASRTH
Kind of data set: Inhibitory activity on human neutrophil elastase (HNE) in vitro. The class given is biochemical. The note with it: human neutrophil elastase 0.2 U/ml, substrate MeO-Suc-Ala-Ala-Pro-Val-pNA 0.5 mM, 37° C., pH 7.5. The protocol: Experiment 1: Inhibitory Activity on Human Neutrophil Elastase (HNE)
The inhibitory activity of the compound of the present invention in vitro on human neutrophil elastase was examined by this experiment.
To 100 mM of HEPES {[N-(2-hydroxyethyl)piperazine-N′-(2-ethanesulfonic acid)], pH 7.5}buffer solution containing 1M NaCl and 0.001% Brij-35 (polyoxyethylene lauryl ether) were added human neutrophil elastase (final concentration: 0.2 U/ml, Elastine Product Co., Inc.) and the compound of the present invention (dissolved in 10% dimethyl sulfoxide; final concentration: 10^−10˜3×10^−3 M). The mixture was pre-incubated for 3 minutes at 37° C. Thereto was added MeO-Suc-Ala-Ala-Pro-Val-pNA (methoxysuccinyl-alanyl-alanyl-prolyl-valyl-p-nitroanilide (Sigma Chemical Co.)) as a substrate to give the final concentration of 0.5 mM, and the reaction was initiated. Under this condition, the producing rate of the reaction product, p-nitroanilide (pNA) at 37° C. was estimated by measuring the absorbance at 404 nm for 3 minutes.
The inhibitory activity of the compound of the present invention against human neutrophil elastase (HNE) is calculated according to the following formula.
The concentration of the compound of the present invention to be required to achieve 50% HNE inhibition (i.e., IC50) was calculated based on the concentration-inhibitory rate curve of the compound of the present invention.
As a comparative compound, N-[(1S)-2-((2S)-2-{N-[(1S)-3,3,3-trifluoro-1-(methylethyl)-2-oxopropyl]carbamoyl}pyrrolidinyl)-1-(methylethyl)-2-oxoethyl](imidazol-4-yl)carboxamide was used, and the same assay was carried out. The planar structure of this compound was the same as one of compound (22) disclosed in J. Med. Chem., 1997, 40, 1876–1885.

Data set [2] has as its system pulmonary hemorrhage induced by human neutrophil elastase (HNE). Kind of data set: Inhibitory activity on pulmonary hemorrhage induced by human neutrophil elastase (HNE). The conditions noted are these: hamster; for ED50: Homo sapiens, Neutrophil, po; for Pulmonary hemorrhage inhibitory rate (%): dose 3 mg/kg orally, 30 minutes prior to HNE. It is filed as in vivo. The source says:
Experiment 3: Inhibitory Activity on Pulmonary Hemorrhage Induced by Human Neutrophil Elastase (HNE)
This experiment tested on in vivo efficacy of the compound of the present invention. When human neutrophil elastase is intratracheally administered to a hamster, the pulmonary hemorrhage is induced. A definite time later after administration of the elastase, in the bronchoalveolar lavage fluid by washing lung via trachea, hemoglobin is detected.
Hamsters (Syrian strain, 7–10 weeks old male) were divided into groups consisting of 3 to 6, and each group was treated as follows:
(A) A Group to which the Compound of the Present Invention was not Administered (Disease Control):
Physiological saline solution (0.2 ml) in which 25 unit of human neutrophil elastase (Elastin Product Co., Inc.) was dissolved was intratracheally administered to a hamster to induce the pulmonary hemorrhage. One hour later after administration of elastase, the hamsters were sacrificed by exsanquination, and alveoli were transtracheally washed twice with physiological saline (2.5 ml), and the hemoglobin concentration in the bronchoalveolar lavage fluid (5 ml) was determined by measuring the absorbance at 414 nm.
(B) A Group to which the Compound of the Present Invention was Administered:
A fixed amount of the compound of the present invention was dissolved in dimethyl sulfoxide (DMSO), and thereto was added 0.5% tragacanth gum to prepare a suspension. The suspension was orally administered to a hamster, 30 minutes prior to the administration of human neutrophil elastase (HNE) (final concentration of DMSO, 1%), and then, human neutrophil elastase was administered in the same manner as the above method (A). After 1 hour, the concentration of hemoglobin in the bronchoalveolar lavage fluid was determined in the same manner as the above method (A).
The hemorrhage inhibition activity of the compound of the present invention is represented as the hemorrhage inhibiting rate in the following formula.
The dose of the compound of the present invention to be required to achieve 50% inhibition of pulmonary hemorrhage (i.e., ED50) was calculated based on the administration dose-hemorrhage inhibiting rate curve.
As a comparative example, the same experiment was also carried out on a comparative compound used in Experiment 1.
Some of the compounds of the present invention were compared with the comparative compound on the hemorrhage inhibitory rate at the dose of 3 mg/kg.

The target of data set [3] is T2, porcine pancreas elastase (Sus scrofa, UniProt P00772).
T2 construct: purchased Elastin Products Co., Inc
T2 sequence (P00772 27-266): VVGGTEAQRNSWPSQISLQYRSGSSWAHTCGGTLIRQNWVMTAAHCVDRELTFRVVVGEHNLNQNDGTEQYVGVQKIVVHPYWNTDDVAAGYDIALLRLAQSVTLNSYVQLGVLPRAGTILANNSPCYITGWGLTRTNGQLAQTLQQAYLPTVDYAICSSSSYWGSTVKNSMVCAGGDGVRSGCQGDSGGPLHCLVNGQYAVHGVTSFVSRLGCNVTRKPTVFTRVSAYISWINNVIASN
The experiment in a line: Inhibitory activity against porcine pancreas elastase. It is filed as biochemical. The note with it: porcine pancreas elastase 40 ng/ml, substrate Suc-Ala-Ala-Ala-pNA 2.5 mM. The protocol:
Experiment 2: Inhibitory Activity Against Porcine Pancreas Elastase
The inhibitory activity was measured in the same manner as experiment 1, except for using porcine pancreas elastase (Elastin Products Co., Inc., final concentration 40 ng/ml) as a target enzyme and Suc-Ala-Ala-Ala-pNA (succinyl-alanyl-alanyl-alanyl-p-nitroanilide, Peptide Research, final concentration 2.5 mM) as a substrate.

A further data set deals with ICR mice. The experiment in a line: Acute toxicity. The class given is in vivo. The note with it: male ICR mice (5 mice), 300 mg/kg orally, after 24 hours. As for the experimental part:
Experiment 5: Acute Toxicity
The compound of the present invention (each compound of Example 10, Example 11, Example 15, Example 25, and Example 40) was suspended in 0.5% tragacanth gum and the suspension was orally administered to 7 weeks old, male ICR mice (5 mice) at 300 mg/kg.

Setting [4] is: orally administered 30 minutes prior to intratracheal HNE, hemoglobin in bronchoalveolar lavage fluid after 1 hour.

Each structure is given as a SMILES string.

For orientation: IC50 means the point on the concentration scale where inhibition reaches its midpoint. Read a low IC50 as greater potency in that assay. In general, ED50 refers to the dose that gives a 50% effect, or the effect in half of the subjects. High values mean weaker potency, low ones greater potency. As for `CC(C)[C@H](NC(=O)c1noc2ccccc12)C(=O)N1CCC[C@H]1C(=O)N[C@H](C(=O)C(F)(F)F)C(C)C` [Example 2, N-[(1S)-2-((2S)-2-{N-[(1S)-3,3,3-trifluoro-1-(methylethyl)-2-oxopropyl]carbamoyl}pyrrolidinyl)-1-(methylethyl)-2-oxoethyl](benzo [d]isoxazol-3-yl)carboxamide], the results for the IC50 in data set [1] and in data set [3] were 8.1 nM and 215 nM, respectively. The ED50 in data set [2] (setting [4]) was found to be 0.86 mg/kg.
In the case of `CC(C)[C@H](NC(=O)c1cc(C(C)(C)C)n(C)n1)C(=O)N1CCC[C@H]1C(=O)N[C@H](C(=O)C(F)(F)F)C(C)C` [Example 25, N-[(1S)-2-((2S)-2-{N-[(1S)-3,3,3-trifluoro-1-(methylethyl)-2-oxopropyl]carbamoyl}pyrrolidinyl)-1-(methylethyl)-2-oxoethyl]-(5-tert-butyl-1-methylpyrazol-3-yl)carboxamide], the “Acute toxicity: death or not” value with ICR mice was “all were alive”.
As to `COc1cc(C(=O)N[C@H](C(=O)N2CCC[C@H]2C(=O)N[C@H](C(=O)C(F)(F)F)C(C)C)C(C)C)on1` [Example 11, N-[(1S)-2-((2S)-2-{N-[(1S)-3,3,3-trifluoro-1-(methylethyl)-2-oxopropyl]carbamoyl}pyrrolidinyl)-1-(methylethyl)-2-oxoethyl]-(3-methoxyisoxazol-5-yl)carboxamide], the IC50 in data set [1] was found to be 27 nM. The compound further had an ED50 in data set [2] (setting [4]) of 1.5 mg/kg. For the same compound, the “Acute toxicity: death or not” value with ICR mice is listed as “all were alive”.
Regarding `CCc1noc(C)c1C(=O)N[C@H](C(=O)N1CCC[C@H]1C(=O)N[C@H](C(=O)C(F)(F)F)C(C)C)C(C)C` [Example 4, N-[(1S)-2-((2S)-2-{N-[(1S)-3,3,3-trifluoro-1-(methylethyl)-2-oxopropyl]carbamoyl}pyrrolidinyl)-1-(methylethyl)-2-oxoethyl]-(3-ethyl-5-methylisoxazol-4-yl)carboxamide], inhibition in data set [1] was half-maximal at 17 nM (IC50). In data set [2] (setting [4]), the 50% effective dose (ED50) amounted to 2.5 mg/kg.
With `CC(C)Oc1cc(C(=O)N[C@H](C(=O)N2CCC[C@H]2C(=O)N[C@H](C(=O)C(F)(F)F)C(C)C)C(C)C)on1` [Example 12, N-[(1S)-2-((2S)-2-{N-[(1S)-3,3,3-trifluoro-1-(methylethyl)-2-oxopropyl]carbamoyl}pyrrolidinyl)-1-(methylethyl)-2-oxoethyl]-[3-(methylethoxy)isoxazol-5-yl]carboxamide], the IC50 in data set [1] was determined as 16 nM. Further, the “Pulmonary hemorrhage inhibitory rate (%)” value in data set [2] came out at 66%.
The compound `Cc1cc(C(=O)N[C@H](C(=O)N2CCC[C@H]2C(=O)N[C@H](C(=O)C(F)(F)F)C(C)C)C(C)C)no1` [Example 15, N-[(1S)-2-((2S)-2-{N-[(1S)-3,3,3-trifluoro-1-(methylethyl)-2-oxopropyl]carbamoyl}pyrrolidinyl)-1-(methylethyl)-2-oxoethyl]-(5-methylisoxazol-3-yl)carboxamide] displayed an IC50 in data set [1] of 24 nM. In addition, the ED50 in data set [2] (setting [4]) worked out at 0.62 mg/kg. For the same compound, the “Acute toxicity: death or not” value in the data set on ICR mice was “all were alive”.
As to `Cc1noc(C)c1C(=O)N[C@H](C(=O)N1CCC[C@H]1C(=O)N[C@H](C(=O)C(F)(F)F)C(C)C)C(C)C` [Example 1, N-[(1S)-2-((2S)-2-{N-[(1S)-3,3,3-trifluoro-1-(methylethyl)-2-oxopropyl]carbamoyl}pyrrolidinyl)-1-(methylethyl)-2-oxoethyl](3,5-dimethylisoxazol-4-yl)carboxamide], the half-inhibitory concentration (IC50) in data set [1] stood at 17 nM; in data set [3] it was 154 nM. In addition, in data set [2] (setting [4]), the ED50 was 2.6 mg/kg.
For the compound `CC(C)[C@H](NC(=O)c1c[nH]cn1)C(=O)N1CCC[C@H]1C(=O)N[C@H](C(=O)C(F)(F)F)C(C)C` [Comparative compound, N-[(1S)-2-((2S)-2-{N-[(1S)-3,3,3-trifluoro-1-(methylethyl)-2-oxopropyl]carbamoyl}pyrrolidinyl)-1-(methylethyl)-2-oxoethyl](imidazol-4-yl)carboxamide, reference compound], the IC50 in data set [1] is 78 nM. The “Pulmonary hemorrhage inhibitory rate (%)” value in data set [2] is 18%. Besides, the “Inhibitory activity on pulmonary hemorrhage ED50” value in data set [2] (setting [4]) is recorded as >10 mg/kg.
On to `Cc1c(C(=O)N[C@H](C(=O)N2CCC[C@H]2C(=O)N[C@H](C(=O)C(F)(F)F)C(C)C)C(C)C)cnn1-c1ccccc1` [Example 10, N-[(1S)-2-((2S)-2-{N-[(1S)-3,3,3-trifluoro-1-(methylethyl)-2-oxopropyl]carbamoyl}pyrrolidinyl)-1-(methylethyl)-2-oxoethyl]-(5-methyl-1-phenylpyrazol-4-yl)carboxamide], for which, in data set [1], it took 10 nM to reach half-maximal inhibition (IC50). The compound also had an ED50 in data set [2] (setting [4]) of 1.1 mg/kg. In addition, the “Acute toxicity: death or not” value with ICR mice is “all were alive”.
In data set [1], `Cc1c(C(=O)N[C@H](C(=O)N2CCC[C@H]2C(=O)N[C@H](C(=O)C(F)(F)F)C(C)C)C(C)C)cnn1-c1ccc(C(F)(F)F)cc1` [Example 47, N-[(1S)-2-((2S)-2-{N-[(1S)-3,3,3-trifluoro-1-(methylethyl)-2-oxopropyl]carbamoyl}pyrrolidinyl)-1-(methylethyl)-2-oxoethyl]-{5-methyl-1-[4-(trifluoromethyl)phenyl]pyrazol-4-yl}carboxamide] displayed an IC50 of 15 nM. Also, the “Pulmonary hemorrhage inhibitory rate (%)” value in data set [2] was determined as 60%.
Taken in the same sequence, the figures for `Cc1cc2onc(C(=O)N[C@H](C(=O)N3CCC[C@H]3C(=O)N[C@H](C(=O)C(F)(F)F)C(C)C)C(C)C)c2cc1C` [Example 17, N-[(1S)-2-((2S)-2-{N-[(1S)-3,3,3-trifluoro-1-(methylethyl)-2-oxopropyl]carbamoyl}pyrrolidinyl)-1-(methylethyl)-2-oxoethyl]-(5,6-dimethylbenzo[d]isoxazol-3-yl)carboxamide] were 11 nM and 59%.
The compound `COc1ccc(-n2ncc(C(=O)N[C@H](C(=O)N3CCC[C@H]3C(=O)N[C@H](C(=O)C(F)(F)F)C(C)C)C(C)C)c2C)cc1` [Example 40, N-[(1S)-2-((2S)-2-{N-[(1S)-3,3,3-trifluoro-1-(methylethyl)-2-oxopropyl]carbamoyl}pyrrolidinyl)-1-(methylethyl)-2-oxoethyl]-[5-methyl-1-(4-methoxyphenyl)pyrazol-4-yl]carboxamide] displayed an IC50 in data set [1] of 8.4 nM. Also, the “Pulmonary hemorrhage inhibitory rate (%)” value in data set [2] is given as 70%. Also, the “Acute toxicity: death or not” value in the data set with ICR mice was “all were alive”.
